In doi:10.1101/2023.11.24.568596v1 (biorxiv, 2023):
One block for each compound: values may come before it.

Tests used:
Conditions in all cases: binder
JNK1 = JNK1 (Homo sapiens, UniProt P45983)
SLK = SLK (Homo sapiens, UniProt Q9H2G2)
BRAF = BRAF (Homo sapiens, UniProt P15056)
AKT3 = AKT3 (Homo sapiens, UniProt Q9Y243)
PIM1 = PIM1 (Homo sapiens, UniProt P11309)
DMPK1 = molecular target: T1, DMPK1 (Homo sapiens, UniProt Q09013)
T1 sequence (Q09013 1-629): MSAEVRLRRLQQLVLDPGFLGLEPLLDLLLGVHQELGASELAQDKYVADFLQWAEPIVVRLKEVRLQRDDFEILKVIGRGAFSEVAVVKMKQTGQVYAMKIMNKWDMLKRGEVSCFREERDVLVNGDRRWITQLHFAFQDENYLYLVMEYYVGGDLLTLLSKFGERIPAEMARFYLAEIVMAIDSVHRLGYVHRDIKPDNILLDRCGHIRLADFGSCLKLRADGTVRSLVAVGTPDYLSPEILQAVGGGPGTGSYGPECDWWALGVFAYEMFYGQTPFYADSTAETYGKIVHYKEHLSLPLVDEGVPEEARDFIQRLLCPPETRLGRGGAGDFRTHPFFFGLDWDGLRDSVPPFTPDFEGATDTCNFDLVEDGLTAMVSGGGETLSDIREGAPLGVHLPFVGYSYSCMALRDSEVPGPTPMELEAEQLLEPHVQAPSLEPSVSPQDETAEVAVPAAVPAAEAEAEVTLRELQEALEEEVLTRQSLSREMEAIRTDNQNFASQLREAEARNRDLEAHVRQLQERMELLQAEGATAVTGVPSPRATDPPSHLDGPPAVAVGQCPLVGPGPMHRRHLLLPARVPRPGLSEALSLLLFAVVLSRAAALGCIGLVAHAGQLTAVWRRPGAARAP

DRAK1 = molecular target: T2, DRAK1 (Homo sapiens, UniProt Q9UEE5)
T2 sequence (Q9UEE5 1-414): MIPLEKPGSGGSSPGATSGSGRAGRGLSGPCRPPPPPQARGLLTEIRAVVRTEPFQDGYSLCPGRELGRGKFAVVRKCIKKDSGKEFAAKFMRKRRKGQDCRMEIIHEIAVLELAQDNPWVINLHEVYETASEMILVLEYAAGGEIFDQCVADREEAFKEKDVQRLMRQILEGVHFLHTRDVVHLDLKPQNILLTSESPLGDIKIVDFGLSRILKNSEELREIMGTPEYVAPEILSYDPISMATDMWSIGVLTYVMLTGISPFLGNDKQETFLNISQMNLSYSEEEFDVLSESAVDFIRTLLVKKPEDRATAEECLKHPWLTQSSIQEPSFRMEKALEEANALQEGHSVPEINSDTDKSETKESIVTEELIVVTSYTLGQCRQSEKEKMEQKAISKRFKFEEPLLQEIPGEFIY

BRD4 = BRD4 (Homo sapiens, UniProt O60885)
BIKE = BIKE (Homo sapiens, UniProt Q9NSY1)
Sequence of BIKE (Q9NSY1 whole entry): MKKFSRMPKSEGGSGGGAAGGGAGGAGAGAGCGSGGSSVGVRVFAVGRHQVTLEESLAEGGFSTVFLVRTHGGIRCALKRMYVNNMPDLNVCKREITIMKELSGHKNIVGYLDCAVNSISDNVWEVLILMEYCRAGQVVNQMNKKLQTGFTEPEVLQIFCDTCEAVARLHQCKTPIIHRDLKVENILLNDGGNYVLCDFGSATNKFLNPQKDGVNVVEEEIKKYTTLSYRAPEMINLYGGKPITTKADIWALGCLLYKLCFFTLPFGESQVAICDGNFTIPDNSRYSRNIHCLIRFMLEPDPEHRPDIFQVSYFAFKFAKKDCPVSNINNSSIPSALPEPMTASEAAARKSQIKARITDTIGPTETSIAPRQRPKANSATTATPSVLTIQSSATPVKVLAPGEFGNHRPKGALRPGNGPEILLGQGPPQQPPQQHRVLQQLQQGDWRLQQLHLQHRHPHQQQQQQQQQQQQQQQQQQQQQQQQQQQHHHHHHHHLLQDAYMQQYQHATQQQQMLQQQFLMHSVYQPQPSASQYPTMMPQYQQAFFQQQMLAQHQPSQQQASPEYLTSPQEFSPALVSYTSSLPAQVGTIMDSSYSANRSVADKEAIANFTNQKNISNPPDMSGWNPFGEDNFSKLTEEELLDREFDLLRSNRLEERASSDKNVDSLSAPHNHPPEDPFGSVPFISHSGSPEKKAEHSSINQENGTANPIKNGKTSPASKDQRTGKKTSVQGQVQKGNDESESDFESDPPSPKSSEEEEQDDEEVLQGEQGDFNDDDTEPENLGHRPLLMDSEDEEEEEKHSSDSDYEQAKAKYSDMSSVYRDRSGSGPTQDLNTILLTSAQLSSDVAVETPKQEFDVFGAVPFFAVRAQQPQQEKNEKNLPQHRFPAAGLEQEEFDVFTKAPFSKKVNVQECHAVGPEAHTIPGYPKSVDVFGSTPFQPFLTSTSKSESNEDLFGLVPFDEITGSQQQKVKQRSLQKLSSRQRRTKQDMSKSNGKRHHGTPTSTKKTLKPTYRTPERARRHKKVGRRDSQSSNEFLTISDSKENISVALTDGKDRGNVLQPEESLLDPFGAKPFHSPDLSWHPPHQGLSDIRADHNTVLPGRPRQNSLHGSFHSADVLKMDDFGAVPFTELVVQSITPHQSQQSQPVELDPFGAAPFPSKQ

FECH = molecular target: T3, FECH (Homo sapiens, UniProt P22830)
T3 sequence (P22830 1-423): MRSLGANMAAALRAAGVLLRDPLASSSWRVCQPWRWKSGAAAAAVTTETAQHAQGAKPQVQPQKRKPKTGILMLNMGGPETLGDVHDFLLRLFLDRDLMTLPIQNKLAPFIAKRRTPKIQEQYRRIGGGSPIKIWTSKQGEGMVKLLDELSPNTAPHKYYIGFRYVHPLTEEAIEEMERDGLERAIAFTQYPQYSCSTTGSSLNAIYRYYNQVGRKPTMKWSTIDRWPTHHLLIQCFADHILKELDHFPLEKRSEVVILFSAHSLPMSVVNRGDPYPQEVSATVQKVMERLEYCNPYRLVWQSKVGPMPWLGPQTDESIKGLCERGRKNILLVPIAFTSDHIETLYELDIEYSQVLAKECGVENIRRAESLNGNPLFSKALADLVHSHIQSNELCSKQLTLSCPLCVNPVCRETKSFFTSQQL

DYRK1A = DYRK1A (Homo sapiens, UniProt Q13627)
JNK3 = JNK3 (Homo sapiens, UniProt P53779)
Sequence of JNK3 (P53779 whole entry): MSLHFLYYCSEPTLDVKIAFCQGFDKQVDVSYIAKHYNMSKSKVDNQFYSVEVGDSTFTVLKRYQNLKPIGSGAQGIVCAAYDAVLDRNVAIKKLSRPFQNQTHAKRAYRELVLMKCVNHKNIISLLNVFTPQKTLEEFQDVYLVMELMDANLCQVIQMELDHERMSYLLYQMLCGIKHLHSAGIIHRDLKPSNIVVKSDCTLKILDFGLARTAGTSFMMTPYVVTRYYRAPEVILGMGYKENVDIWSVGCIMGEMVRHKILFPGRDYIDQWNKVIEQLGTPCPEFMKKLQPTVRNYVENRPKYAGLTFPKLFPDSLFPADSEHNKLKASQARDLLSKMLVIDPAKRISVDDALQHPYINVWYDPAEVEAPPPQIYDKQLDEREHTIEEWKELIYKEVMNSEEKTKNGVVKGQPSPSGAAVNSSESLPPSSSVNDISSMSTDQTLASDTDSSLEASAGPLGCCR

PAK4 = PAK4 (Homo sapiens, UniProt O96013)
GSK3B = GSK3B (Homo sapiens, UniProt P49841)

Sequence of PIM1 (P11309 whole entry): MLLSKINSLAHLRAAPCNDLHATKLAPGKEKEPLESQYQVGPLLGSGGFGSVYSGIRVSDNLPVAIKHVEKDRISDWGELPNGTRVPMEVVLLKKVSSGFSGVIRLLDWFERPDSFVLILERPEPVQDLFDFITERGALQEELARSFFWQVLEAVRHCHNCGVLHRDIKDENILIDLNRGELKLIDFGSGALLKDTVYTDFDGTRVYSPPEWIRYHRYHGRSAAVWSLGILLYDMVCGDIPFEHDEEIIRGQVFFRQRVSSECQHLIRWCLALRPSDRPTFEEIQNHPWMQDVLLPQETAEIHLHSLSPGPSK
Sequence of SLK (Q9H2G2 whole entry): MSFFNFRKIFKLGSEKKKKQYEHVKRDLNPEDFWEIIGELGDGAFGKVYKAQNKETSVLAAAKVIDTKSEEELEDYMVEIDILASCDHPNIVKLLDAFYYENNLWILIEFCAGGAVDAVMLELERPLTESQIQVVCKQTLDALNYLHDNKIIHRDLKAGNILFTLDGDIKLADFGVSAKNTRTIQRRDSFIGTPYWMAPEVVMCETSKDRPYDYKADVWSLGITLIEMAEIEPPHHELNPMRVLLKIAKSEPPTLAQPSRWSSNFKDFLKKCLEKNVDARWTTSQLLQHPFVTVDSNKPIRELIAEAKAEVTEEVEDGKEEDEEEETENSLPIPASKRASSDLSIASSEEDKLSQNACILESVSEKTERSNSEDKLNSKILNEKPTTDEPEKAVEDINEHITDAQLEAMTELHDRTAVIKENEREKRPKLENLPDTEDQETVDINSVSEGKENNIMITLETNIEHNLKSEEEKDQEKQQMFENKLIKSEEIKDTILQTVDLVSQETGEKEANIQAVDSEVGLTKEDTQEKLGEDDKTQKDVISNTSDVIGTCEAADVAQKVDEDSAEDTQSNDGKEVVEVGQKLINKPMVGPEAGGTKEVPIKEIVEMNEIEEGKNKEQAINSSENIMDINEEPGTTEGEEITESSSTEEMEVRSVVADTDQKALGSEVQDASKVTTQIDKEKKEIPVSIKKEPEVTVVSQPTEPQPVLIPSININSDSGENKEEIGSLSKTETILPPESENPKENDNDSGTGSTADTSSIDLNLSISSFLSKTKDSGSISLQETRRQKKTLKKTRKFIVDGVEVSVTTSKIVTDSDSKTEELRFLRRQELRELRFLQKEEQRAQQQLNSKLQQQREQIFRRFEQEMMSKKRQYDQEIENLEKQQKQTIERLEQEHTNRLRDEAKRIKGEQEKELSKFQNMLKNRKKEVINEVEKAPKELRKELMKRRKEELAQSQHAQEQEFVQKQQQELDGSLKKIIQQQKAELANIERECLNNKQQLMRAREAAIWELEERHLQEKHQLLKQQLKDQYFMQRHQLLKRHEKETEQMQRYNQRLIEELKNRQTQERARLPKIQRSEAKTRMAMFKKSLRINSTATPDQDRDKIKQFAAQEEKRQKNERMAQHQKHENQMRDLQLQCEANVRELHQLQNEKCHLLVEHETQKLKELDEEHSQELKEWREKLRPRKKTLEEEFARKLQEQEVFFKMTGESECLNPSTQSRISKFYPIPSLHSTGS
Sequence of AKT3 (Q9Y243 whole entry): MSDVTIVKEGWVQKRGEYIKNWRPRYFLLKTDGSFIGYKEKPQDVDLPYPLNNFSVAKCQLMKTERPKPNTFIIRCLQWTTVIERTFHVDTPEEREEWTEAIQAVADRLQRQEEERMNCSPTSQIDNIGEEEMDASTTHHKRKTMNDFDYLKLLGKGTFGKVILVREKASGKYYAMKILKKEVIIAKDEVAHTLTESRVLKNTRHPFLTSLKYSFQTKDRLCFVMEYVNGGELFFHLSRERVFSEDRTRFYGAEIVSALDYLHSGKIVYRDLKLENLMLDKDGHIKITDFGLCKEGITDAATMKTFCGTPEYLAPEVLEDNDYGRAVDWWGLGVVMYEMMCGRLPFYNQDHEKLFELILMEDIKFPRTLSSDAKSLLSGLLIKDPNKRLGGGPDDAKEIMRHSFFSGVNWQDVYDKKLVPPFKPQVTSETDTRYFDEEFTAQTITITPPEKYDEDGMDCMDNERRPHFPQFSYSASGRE
Sequence of BRAF (P15056 whole entry): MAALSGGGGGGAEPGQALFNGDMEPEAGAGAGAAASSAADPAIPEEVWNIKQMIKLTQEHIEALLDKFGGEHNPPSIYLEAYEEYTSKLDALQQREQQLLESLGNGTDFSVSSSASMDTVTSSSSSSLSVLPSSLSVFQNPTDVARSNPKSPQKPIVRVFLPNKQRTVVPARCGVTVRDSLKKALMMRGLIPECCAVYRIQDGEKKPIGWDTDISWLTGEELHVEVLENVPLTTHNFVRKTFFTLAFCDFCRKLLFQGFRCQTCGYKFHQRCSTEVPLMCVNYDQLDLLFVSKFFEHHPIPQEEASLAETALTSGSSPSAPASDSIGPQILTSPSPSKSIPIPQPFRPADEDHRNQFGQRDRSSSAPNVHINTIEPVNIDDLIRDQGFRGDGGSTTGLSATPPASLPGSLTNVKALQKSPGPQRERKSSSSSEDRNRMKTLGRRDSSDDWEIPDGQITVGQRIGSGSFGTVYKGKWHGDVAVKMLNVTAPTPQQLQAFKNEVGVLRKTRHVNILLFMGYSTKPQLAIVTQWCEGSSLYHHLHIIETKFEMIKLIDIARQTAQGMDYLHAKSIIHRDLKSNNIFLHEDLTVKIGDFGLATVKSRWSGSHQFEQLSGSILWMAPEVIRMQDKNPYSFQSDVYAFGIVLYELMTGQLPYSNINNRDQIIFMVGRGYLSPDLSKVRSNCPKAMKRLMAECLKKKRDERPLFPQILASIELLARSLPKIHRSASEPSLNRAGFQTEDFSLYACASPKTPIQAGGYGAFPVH
Sequence of JNK1 (P45983 whole entry): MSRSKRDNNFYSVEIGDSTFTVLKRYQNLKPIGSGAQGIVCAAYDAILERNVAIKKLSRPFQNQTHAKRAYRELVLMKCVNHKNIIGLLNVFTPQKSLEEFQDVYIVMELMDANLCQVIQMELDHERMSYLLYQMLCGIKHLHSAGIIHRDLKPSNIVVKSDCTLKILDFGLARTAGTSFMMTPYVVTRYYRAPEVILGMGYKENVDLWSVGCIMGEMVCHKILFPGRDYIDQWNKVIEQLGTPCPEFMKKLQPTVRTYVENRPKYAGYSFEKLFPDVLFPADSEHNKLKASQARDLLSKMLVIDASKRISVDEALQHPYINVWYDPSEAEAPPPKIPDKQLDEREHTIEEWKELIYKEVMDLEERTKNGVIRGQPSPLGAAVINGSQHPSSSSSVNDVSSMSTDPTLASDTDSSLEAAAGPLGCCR

dTm 33 (JNK1): 2.2 °C | dTm 33 (SLK): 8.0 °C | dTm 33 (BRAF): 6.3 °C | dTm 33 (AKT3): 4.6 °C | dTm 33 (PIM1): 3.3 °C | dTm 33 (DMPK1): -4.7 °C | dTm 33 (DRAK1): 3.5 °C | dTm 33 (BRD4): -3.7 °C | dTm 33 (BIKE): 7.2 °C | dTm 33 (FECH): -2.9 °C | dTm 33 (DYRK1A): -0.6 °C | dTm 33 (JNK3): 5.2 °C | dTm 33 (PAK4): 8.2 °C | dTm 33 (GSK3B): 2.3 °C
Structure (SMILES): Cc1cccc(-c2ccc(-c3cc4cnc(Nc5ccc(F)c(CO)c5)nc4n(CCCCN)c3=O)c(Cl)c2)n1 [compound 33, 8-(4-Aminobutyl)-6-(2-chloro-4-(6-methylpyridin-2-yl)phenyl)-2-((4-fluoro-3-(hydroxymethyl)phenyl)amino)pyrido[2,3-d]pyrimidin-7(8H)-one]

dTm 34 (JNK1): 1.8 °C | dTm 34 (SLK): 4.7 °C | dTm 34 (BRAF): 1.1 °C | dTm 34 (AKT3): 1.3 °C | dTm 34 (PIM1): 2.7 °C | dTm 34 (DMPK1): -0.8 °C | dTm 34 (DRAK1): 2.2 °C | dTm 34 (BRD4): -1.8 °C | dTm 34 (BIKE): 0.8 °C | dTm 34 (FECH): 3.2 °C | dTm 34 (DYRK1A): -1.0 °C | dTm 34 (JNK3): 3.0 °C | dTm 34 (PAK4): 3.0 °C | dTm 34 (GSK3B): 2.0 °C
Structure (SMILES): COc1ccc(O)c(Nc2ncc3cc(-c4ccc(-c5cccc(C)n5)cc4Cl)c(=O)n(CCCCN)c3n2)c1 [compound 34, 8-(4-Aminobutyl)-6-(2-chloro-4-(6-methylpyridin-2-yl)phenyl)-2-((2-hydroxy-5-methoxy-phenyl)amino)pyrido[2,3-d]pyrimidin-7(8H)-one]

dTm 35 (JNK1): 4.7 °C | dTm 35 (SLK): 5.1 °C | dTm 35 (BRAF): 0.8 °C | dTm 35 (AKT3): 1.0 °C | dTm 35 (PIM1): -0.9 °C | dTm 35 (DMPK1): -2.1 °C | dTm 35 (DRAK1): 5.2 °C | dTm 35 (BRD4): -3.6 °C | dTm 35 (BIKE): 1.3 °C | dTm 35 (FECH): 7.0 °C | dTm 35 (DYRK1A): -2.3 °C | dTm 35 (JNK3): 2.3 °C | dTm 35 (PAK4): 4.1 °C | dTm 35 (GSK3B): -0.3 °C
Structure (SMILES): COc1cc(N2CCOCC2)ccc1Nc1ncc2cc(-c3ccc(-c4cccc(C)n4)cc3Cl)c(=O)n(CCCCN)c2n1 [compound 35, 8-(4-Aminobutyl)-6-(2-chloro-4-(6-methylpyridin-2-yl)phenyl)-2-((2-methoxy-4-morpholino-phenyl)amino)pyrido[2,3-d]pyrimidin-7(8H)-one]

dTm 36 (JNK1): 1.7 °C | dTm 36 (SLK): 4.2 °C | dTm 36 (BRAF): 0.8 °C | dTm 36 (AKT3): 1.0 °C | dTm 36 (PIM1): -0.1 °C | dTm 36 (DMPK1): -1.5 °C | dTm 36 (DRAK1): 6.1 °C | dTm 36 (BRD4): -3.5 °C | dTm 36 (BIKE): 1.0 °C | dTm 36 (FECH): 3.0 °C | dTm 36 (DYRK1A): -0.8 °C | dTm 36 (JNK3): 1.1 °C | dTm 36 (PAK4): 3.9 °C | dTm 36 (GSK3B): 0.2 °C
Structure (SMILES): COc1cc(N2CCN(C)CC2)ccc1Nc1ncc2cc(-c3ccc(-c4cccc(C)n4)cc3Cl)c(=O)n(CCCCN)c2n1 [compound 36, 8-(4-Aminobutyl)-6-(2-chloro-4-(6-methylpyridin-2-yl)phenyl)-2-((2-methoxy-4-(4-methylpiperazin-1-yl)phenyl)amino)pyrido[2,3-d]pyrimidin-7(8H)-one]
